From article PMC10892041, “Vanadium Complexes with Thioanilide Derivatives of Amino Acids: Inhibition of Human Phosphatases and Specificity in Various Cell Models of Metabolic Disturbances” (Pharmaceuticals, 2024)

Tests used:
[1] = target: T1, PTP1B (Homo sapiens, UniProt P18031); assay: Inhibition of human recombinant tyrosine phosphatase PTP1B (DiFMUP fluorescence); type: biochemical; conditions: 1 µM; control solvent only; SD did not exceed 6%
T1 construct: purchased Sigma-Aldrich
T1 sequence (P18031 1-435): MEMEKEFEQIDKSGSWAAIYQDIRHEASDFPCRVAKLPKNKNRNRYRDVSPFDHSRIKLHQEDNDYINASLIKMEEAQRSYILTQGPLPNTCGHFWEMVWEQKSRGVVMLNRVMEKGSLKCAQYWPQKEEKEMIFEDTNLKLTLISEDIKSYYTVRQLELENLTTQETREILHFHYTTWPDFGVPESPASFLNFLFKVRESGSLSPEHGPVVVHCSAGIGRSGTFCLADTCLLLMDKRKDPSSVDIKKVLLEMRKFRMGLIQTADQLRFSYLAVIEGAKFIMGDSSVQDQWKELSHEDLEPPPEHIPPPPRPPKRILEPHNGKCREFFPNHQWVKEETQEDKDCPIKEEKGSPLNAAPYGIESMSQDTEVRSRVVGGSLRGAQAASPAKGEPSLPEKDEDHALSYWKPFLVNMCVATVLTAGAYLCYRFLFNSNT
Method: (§1) To determine the ability of the tested compounds for inhibition tyrosine phosphatases, human recombinant proteins were used (Sigma-Aldrich). The reactions were performed in black opaque 384-well microplates (PerkinElmer, Waltham, MA, USA). An equal volume of phosphatase solution in a reaction buffer (25 mM of 3-(N-morpholino)propanesulfonic acid (MOPS), 50 mM NaCl, 1 mM dithiothreitol (DTT), and 0.05% Tween-20 (pH 7.0)) was added to the solution of the tested compound on microplate. These solutions were dispensed using an automated injector. The following final concentrations of the tested phosphatases were used: PTP1B 50 ng/mL, SHP1 400 ng/mL, SHP2 50 ng/mL, LAR 5 ng/mL, and PTPRA 100 ng/mL. After 10 min, a solution of phosphate 6,8-difluoro-4-methyl (DiFMUP; Thermo Fisher Scientific) was added until its final concentration was 0.1 mM. Samples were incubated for 20 miN at 23 °C, and then the measurements of fluorescence intensity (excitation 355 and emission […]) were performed on a multifunctional plate reader POLARstar Omega (BMG Labtech, Ortenberg, Germany). Assays were performed in triplicate. For the screening assays, the final concentration of the tested compounds was 1 µM. The results were expressed as percent inhibition of untreated control (enzyme with vehicle only) for the screening tests. […] IC50 were calculated using GraphPad Prism version 6.0 software (GraphPad Software, Boston, MA, USA).

[2] = target: T2, LAR (Homo sapiens, UniProt P10586); assay: Inhibition of human recombinant tyrosine phosphatase LAR (DiFMUP fluorescence); type: biochemical; conditions: 1 µM; control solvent only; SD did not exceed 6%
T2 sequence (P10586 1352-1607 limits assumed): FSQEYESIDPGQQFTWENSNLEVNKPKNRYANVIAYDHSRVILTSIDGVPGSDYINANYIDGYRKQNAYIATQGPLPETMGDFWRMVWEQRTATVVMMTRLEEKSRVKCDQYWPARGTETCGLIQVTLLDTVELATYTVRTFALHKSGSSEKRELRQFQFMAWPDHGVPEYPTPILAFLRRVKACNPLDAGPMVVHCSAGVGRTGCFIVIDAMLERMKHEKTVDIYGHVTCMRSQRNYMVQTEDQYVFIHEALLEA
Method: as §1

[3] = target: T3, SHP1 (Homo sapiens, UniProt P29350); assay: Inhibition of human recombinant tyrosine phosphatase SHP1 (DiFMUP fluorescence); type: biochemical; conditions: 1 µM; control solvent only; SD did not exceed 6%
T3 construct: purchased Sigma-Aldrich
T3 sequence (P29350 whole entry): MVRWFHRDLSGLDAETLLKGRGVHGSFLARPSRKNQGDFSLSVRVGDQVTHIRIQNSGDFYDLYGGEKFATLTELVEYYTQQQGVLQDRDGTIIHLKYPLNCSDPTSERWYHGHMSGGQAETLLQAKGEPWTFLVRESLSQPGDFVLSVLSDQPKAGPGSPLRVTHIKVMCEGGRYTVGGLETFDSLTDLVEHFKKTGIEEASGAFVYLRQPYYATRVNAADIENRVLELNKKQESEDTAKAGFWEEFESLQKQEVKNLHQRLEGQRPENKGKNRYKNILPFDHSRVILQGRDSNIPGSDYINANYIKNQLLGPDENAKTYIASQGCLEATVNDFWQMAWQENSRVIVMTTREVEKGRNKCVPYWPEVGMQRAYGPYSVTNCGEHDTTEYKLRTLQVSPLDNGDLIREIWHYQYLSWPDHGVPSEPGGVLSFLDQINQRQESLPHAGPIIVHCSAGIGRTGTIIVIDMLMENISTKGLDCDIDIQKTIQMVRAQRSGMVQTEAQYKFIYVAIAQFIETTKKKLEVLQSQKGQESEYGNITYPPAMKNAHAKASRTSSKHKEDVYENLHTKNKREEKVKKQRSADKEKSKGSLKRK
Method: as §1

[4] = target: T4, SHP2 (Homo sapiens, UniProt Q06124); assay: Inhibition of human recombinant tyrosine phosphatase SHP2 (DiFMUP fluorescence); type: biochemical; conditions: 1 µM; control solvent only; SD did not exceed 6%
T4 construct: purchased Sigma-Aldrich
T4 sequence (Q06124 1-593): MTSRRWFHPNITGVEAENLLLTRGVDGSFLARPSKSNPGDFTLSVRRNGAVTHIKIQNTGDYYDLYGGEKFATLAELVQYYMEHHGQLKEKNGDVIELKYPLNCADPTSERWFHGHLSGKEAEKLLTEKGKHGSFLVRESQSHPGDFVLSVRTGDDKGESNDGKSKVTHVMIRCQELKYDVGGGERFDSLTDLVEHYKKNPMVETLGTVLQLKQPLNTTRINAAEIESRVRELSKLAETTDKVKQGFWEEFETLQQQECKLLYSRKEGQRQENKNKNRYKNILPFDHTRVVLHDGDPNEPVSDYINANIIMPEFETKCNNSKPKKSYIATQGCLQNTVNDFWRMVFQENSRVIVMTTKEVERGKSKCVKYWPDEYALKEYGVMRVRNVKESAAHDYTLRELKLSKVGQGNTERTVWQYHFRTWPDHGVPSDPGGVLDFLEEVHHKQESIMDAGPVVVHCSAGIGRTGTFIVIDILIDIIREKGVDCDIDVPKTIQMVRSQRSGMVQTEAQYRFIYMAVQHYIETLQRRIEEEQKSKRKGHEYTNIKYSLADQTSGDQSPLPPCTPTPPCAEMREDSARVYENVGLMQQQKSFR
Method: as §1

[5] = system: adipocytes 3T3-L1; assay: Scintillation proximity assay, transport of [14C]-deoxy-D-glucose into adipocytes 3T3-L1; type: cell-based, mouse; conditions: 50 µM
Method: Adipocytes 3T3-L1 cell line (ATCC CRL-11605) derived from fibroblasts from mouse embryo tissue were cultured according to standard protocol in DMEM medium supplemented with 10% bovine calf serum, 100 IU/mL penicillin, and […] streptomycin at 37 °C in 5% CO2. Cells were seeded in 96-well poly-D-lysine-coated plates and cultured to reach confluency.
(§2) Scintillation proximity assay (SPA) is a method to measure the real-time accumulation of radiolabeled substrates by adherent cells with no filtration needed. Radioactivity concentrated closer to the scintillator embedded in the plastic bottom of each well provides a stronger signal than the radiolabeled substrate in the culture medium. Uptake of radiolabeled 2-deoxy-D-[U-14C]-glucose was conducted based on previous descriptions.
Adipocytes were washed and the medium was changed to the basal medium. After 24 h incubation, the tested complexes were added. After 2 h incubation at 37 °C in 5% CO2, the medium was changed to DMEM medium without glucose, with 0.1% BSA free from fatty acid, […] L-glutamine, and […] pyruvate. The tested complexes were added again, and further incubation for 4 h was conducted.
(§3) For cells proceeded as above, 2-deoxy-D-[U-14C]-glucose (250–350 mCi/mmol, NEC720A, PerkinElmer) solution in KRB with a total activity of 0.03 mCi was added to each well. […] Non-specific radioactivity was subtracted from each result (cpm). Two independent experiments with triplicates were conducted.

[6] = system: myocytes C2C12; assay: Scintillation proximity assay, transport of [14C]-deoxy-D-glucose into myocytes C2C12; type: cell-based, mouse
Method: (§4) The myocyte C2C12 cell line (ATCC CRL-1772), a subclone of myoblasts from mouse muscles, was cultured according to standard protocol in DMEM supplemented with 10% fetal calf serum, 100 IU/ml penicillin, and […] streptomycin at 37 °C in 5% CO2. Cells were pleated on a 96-well microplate and after reach confluence were differentiated in medium with 2% horse serum. Differentiation medium was changed every 72 h.
as §2
After 24 h incubation, the tested complexes were added. After 2 h incubation at 37 °C in 5% CO2, the medium was changed to low-glucose medium (1000 mg/L), and the tested complexes were added again, with further incubation for 4 h being conducted.
as §3

[7] = system: myocytes C2C12; assay: Glucose consumption (utilization) by myocytes C2C12; type: cell-based, mouse; conditions: 50 µM (highest tested concentration); 24 h
Method: as §4
Differentiated myocytes C2C12 were used after 8 days of differentiation. The culture medium was changed for medium with 0.2% bovine serum albumin, 100 IU/mL penicillin, and 100 µg/mL streptomycin, and after 2 hours of incubation, the medium was changed to fresh medium containing the tested compounds. […]
Glucose concentration was determined based on enzymatic reaction with glucose oxidase and fluorometrically detection reaction end product using an AmplexRed Glucose/Glucose Oxidase Kit (Thermo Fisher Scientific) according to the manufacturer’s protocol. […] Fluorescence signal was measured at excitation of 530 nm and emission of 580 nm using a multimodal microplate reader POLARStar Omega (BMG Labtech), and glucose concentration in samples was calculated in MARS Data Analysis Software version 3.02.R2 (BMG Labtech) based on glucose standards. […] The final results were expressed as the percent of controls containing cells and solvent only.

SMILES | Inhibition of PTP1B, percentage of inhibition of the control [1] | Inhibition of LAR, percentage of inhibition of the control [2] | Inhibition of SHP1, percentage of inhibition of the control [3] | Inhibition of SHP2, percentage of inhibition of the control [4] | Transport of [14C]-deoxy-D-glucose into 3T3-L1 adipocytes, % of control [5] | Transport of [14C]-deoxy-D-glucose into C2C12 myocytes, % of the control ([6]; 50 µM, control solvent only) | Transport of [14C]-deoxy-D-glucose into C2C12 myocytes ([6]; 10 and 1 µM) | Glucose consumption by myocytes C2C12, % of the control [7]
O.[O]=[V]1[O]C(c2ccccc2O)=NN=Cc2cc(Br)ccc2[O]1.c1cnc2c(c1)ccc1cccnc12 [VC013, [VO(L6)(phen)]⋅H2O] | 60% | 66% | 67% | 74% | statistically significant activity |  |  | 
O.O=C(NN=Cc1cc(Br)ccc1[O][V]1[O]C(c2ccccc2)=NN=Cc2cc(Br)ccc2[O]1)c1ccccc1 [VC032, [V(L8)(HL8)]⋅H2O] | 9% | 8% | 44% | 48% |  | 266 ± 36 % of control | significant effects | No statistically significant effect
